Measured values as given in EP4682156A1, “LINKER AND DRUG CONJUGATE USING SAME, AND ANTIBODY-DRUG CONJUGATE AND USE THEREOF” (Shanghai Affinity Biopharmaceutical Co., Ltd., priority 2023, dated 2024).
*1 amine or outer side, *2 acyl side, *3 side chain or, on linkers, in order; H or OH if unused. Where a SMILES comes first, the peptide text is derived from it. [ ]: non-standard residue; d: D form. The star is where a group is joined. Exatecan = CC[C@@]1(O)C(=O)OCc2c1cc1n(c2=O)Cc2c-1nc1cc(F)c(C)c3c1c2[C@@H](N*)CC3; Hexanoyl(6-maleimido) = O=C1C=CC(=O)N1CCCCCC(=O)*; Propanoyl(3-maleimido) = O=C1C=CC(=O)N1CCC(=O)*; PEG6 = NCCOCCOCCOCCOCCOCCOCCC(=O)O; NHCH2OCH2CO = O=C(COCN[*:1])[*:2]

Columns and labels:
cathepsin L [1] = biological target: T1, cathepsin L (Homo sapiens, UniProt P07711); assay: Enzymatic cleavage by cathepsin L, released DXD quantified by HPLC; format: biochemical; conditions: pH 6
T1 sequence (P07711 114-333): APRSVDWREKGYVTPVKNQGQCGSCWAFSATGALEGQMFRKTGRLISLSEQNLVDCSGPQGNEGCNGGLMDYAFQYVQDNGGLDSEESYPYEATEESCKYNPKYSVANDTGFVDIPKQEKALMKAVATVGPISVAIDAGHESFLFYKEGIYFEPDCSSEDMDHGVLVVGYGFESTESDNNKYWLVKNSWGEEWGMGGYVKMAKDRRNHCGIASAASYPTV

cathepsin B = cathepsin B (Homo sapiens, UniProt P07858); assay: Enzymatic cleavage by cathepsin B, released DXD quantified by HPLC; format: biochemical; conditions: 20 hours of action of cathepsin B, 37°C, pH 5.0
Method: (§1) About 25 mg of DXD reference substance was accurately weighed and placed in a 5 mL volumetric flask. DMSO was added to the scale mark and the mixture was mixed to prepare a 10 mM solution which was marked as the standard stock solution. The standard stock solution was taken and prepared into standard solutions with concentrations of 20nmol/mL, 10nmol/mL, 5nmol/mL, 2nmol/mL, 1nmol/mL, and 0.2nmol/mL. 10uL was taken and injected into HPLC, the peak area was recorded. The linear equation was calculated by using the peak area as the ordinate and the concentration as the abscissa.
(§2) • chromatographic column: Agilent Eclipse Plus C18 5um, 4.6*250mm • Fluorescence detector: […] • Mobile phase A: 0.1%TFA/H2O B: ACN • Flow rate: 1ml/min • Injection volume: 10uL
• Activation buffer: 25mM MES, 5mM DTT, pH 5.0 • Assay buffer: 25 mM MES, pH 5.0. • Cathepsin B: 100 µg/mL in activation buffer, incubated at room temperature for 15 minutes
Preparation of sample solution: An appropriate amount of MI-PEG6-GGFL-AM-DXD and EMC-GGFG-AM-DXD were respectively weighed and added with a certain amount of DMSO solution to make the concentration of the stock solution thereof being 10 umol/mL. Then 10uL of the stock solution was respectively taken and added with 80uL of DMSO to dilute to 1 umol/mL. […]

[2] = Stability in monkey heart homogenate; format: in vitro ADME; conditions: 20 hours, 37°C, pH 5.0
Method: (§3) • Assay buffer: 25 mM MES, pH 5.0. • Protein precipitation agent: DMSO/MEOH = 1:1
(§4) Preparation of sample solution: An appropriate amount of MI-PEG6-GGFL-AM-DXD and EMC-GGFG-AM-DXD were weighed and added with a certain amount of DMSO solution to make the concentration of the stock solution thereof being 10 umol/mL. Then 10uL of the stock solution were taken and added with 80uL of DMSO to dilute to 1 umol/mL. Then pure water was added in a ratio of 1:4 to dilute the sample solution to a concentration of 0.2 umol/mL.
(§5) An appropriate amount of fast frozen heart by liquid nitrogen was placed in a 4 mL EP tube and weighed. Assay buffer with pH 5.0 was added at a mass-to-volume ratio of 1:5. The tissue was homogenized using a tissue grinder for 3 min. The heart homogenate was then centrifuged at 12,000 rpm for 5 min. The supernatant was collected and stored in a -40°C refrigerator for later use.
(§6) The sample solution and the heart homogenate were respectively taken at a volume ratio of 1:9 and shaken thoroughly. Another sample solution and buffer solution (pH 5.0) were also shaken thoroughly at a volume ratio of 1:9 as a blank control solution. The solution was placed in a 37°C constant temperature water bath. 30uL was taken at 0h, 2h, 4h, and 20h, and added with 90uL of protein precipitation agent and shaken thoroughly. […]

[3] = Stability in monkey liver homogenate; format: in vitro ADME; conditions: 20 hours, 37°C, pH 5.0
Method: as §3, §4
as §5, with “liver” for “heart”
as §6, with “liver” for “heart”

[4] = Stability in human plasma; conditions: 20 hours, 37°C
[5] = Activation in CT26 tumor homogenate (tumor homogenate 2); conditions: tumor homogenate 2 (CT26), 20 hours, 37°C, pH 5.0
[6] = Activation in human gastric cancer tumor homogenate (tumor homogenate 1); conditions: tumor homogenate 1, after 20 hours, 37°C, pH 5.0
cathepsin L [7] = biological target: T1, cathepsin L; assay: Enzymatic cleavage by cathepsin L, released DXD quantified by HPLC; format: biochemical; conditions: within 20 h
Method: as §1, §2
• Assay Buffer: 50mM MES, 5mM DTT, 1mM EDTA, 0.005% (w/v) Brij-35, pH6.0. • Cathepsin L: 100 µg/mL in assay buffer, incubated on ice for 15 min.
Preparation of sample solution: An appropriate amount of L-AM-DXD was weighed and added with a certain amount of DMSO solution to make the concentration of the stock solution being 10 umol/mL. Then 10uL of the stock solution was taken and added with 80uL of DMSO to dilute to 1 umol/mL. Then pure water was added in a ratio of 1:4 to dilute the sample solution to a concentration of 0.2 umol/mL. […]

[8] = Stability in human plasma; format: in vitro ADME; conditions: within 20 hours
Method: • PBS buffer: pH = 7.2 • Protein precipitation agent: DMSO/MEOH = 1:1
as §4, with “and GGFG-AM-DXD” for “and EMC-GGFG-AM-DXD”, “solution was” for “solution were”
An appropriate amount of sample was weighed and prepared into a 1 mM solution with DMSO. Human plasma was added at a volume ratio of 1:9 and the solution was incubated in a 37°C incubator. Samples were taken after 0, 2, 4, 6, and 20 h. DMSO/MEOH (1:1) was added at a volume ratio of 1:3 to remove protein. The solution was centrifuged at 12,000 rpm for 5 min and the supernatant was collected. The HPLC method was as described in 1.2 of Example 4.

Human Fibrosarcoma = assay: Drug efficacy study of drug conjugates on human fibrosarcoma tumor model; format: in vivo, Nude mice
[9] = 5 µmol/kg (1/10 MTD) once a week for 3 weeks, Day 20

**Q.** With `CC[C@@]1(O)C(=O)OCc2c1cc1n(c2=O)Cc2c-1nc1cc(F)c(C)c3c1c2[C@@H](NC(=O)COCNC(=O)CNC(=O)[C@H](Cc1ccccc1)NC(=O)CNC(=O)CNC(=O)CCCCCN1C(=O)C=CC1=O)CC3` [EMC-GGFG-AM-DXD, reference compound] ({Hexanoyl(6-maleimido)}-GGFG[NHCH2OCH2CO]-Exatecan) as the compound, how does the “DXD produced, share of the reaction substrate (enzymatic cleavage activation efficiency)” value (cathepsin L [1]) read?
**A.** Its value is 27.8%.

**Q.** And the “DXD produced by enzymatic cleavage, share of the reaction substrate” value (cathepsin B)?
**A.** The value was 45.2%.

**Q.** What about the “DXD produced, share of the substrate” value [2] of the same compound?
**A.** Its value is 7.41%.

**Q.** And the “DXD produced, share of the substrate” value [3]?
**A.** The value was 27.6%.

**Q.** What about the “DXD produced, share of the substrate” value [4] of the same compound?
**A.** Its value is 2.88%.

**Q.** What about the substrate contents [4] of the same compound?
**A.** The substrate contents was 97.1%.

**Q.** With `CC[C@@]1(O)C(=O)OCc2c1cc1n(c2=O)Cc2c-1nc1cc(F)c(C)c3c1c2[C@@H](NC(=O)COCNC(=O)[C@H](CC(C)C)NC(=O)[C@H](Cc1ccccc1)NC(=O)CNC(=O)CNC(=O)CCOCCOCCOCCOCCOCCOCCNC(=O)CCN1C(=O)C=CC1=O)CC3` [GGFL-AM-DXD] ({Propanoyl(3-maleimido)-PEG6}-GGFL[NHCH2OCH2CO]-Exatecan) as the compound, how does the “DXD produced, share of the substrate” value [5] read?
**A.** Its value is 98.7%.

**Q.** And the “DXD produced, share of the substrate” value [6]?
**A.** The value was 94.2%.

**Q.** Which “Enzymatic cleavage efficiency %” value (cathepsin L [7]) does the source give for `CC[C@@]1(O)C(=O)OCc2c1cc1n(c2=O)Cc2c-1nc1cc(F)c(C)c3c1c2[C@@H](NC(=O)COCNC(=O)[C@H](CC(C)C)NC(=O)[C@H](Cc1ccccc1)NC(=O)CNC(=O)CNC(=O)CCOCCOCCOCCOCCOCCOCCNC(=O)CCN1C(=O)C=CC1=O)CC3` [S7, MI-PEG6-GGFL-AM-DXd] ({Propanoyl(3-maleimido)-PEG6}-GGFL[NHCH2OCH2CO]-Exatecan) here?
**A.** The value was 98.3%.

**Q.** What about the Generated load % [8] of the same compound?
**A.** Its Generated load % is 1.7%.

**Q.** What about the Substrate content % [8] of the same compound?
**A.** Its Substrate content % is 98.3%.

**Q.** What about the “Anti-tumor rate% Day 20” value (Human Fibrosarcoma; [9]) of the same compound?
**A.** Its value is 98%.

**Q.** What about the “Tumor volume(mm^3) Day 20” value (Human Fibrosarcoma; [9]) of the same compound?
**A.** Its value is 20 mm^3.

**Q.** And the “treatment efficacy compared with DXd” value (Human Fibrosarcoma; same dose 5 µmol/kg once a week for 3 weeks)?
**A.** The value was “significantly improved treatment efficacy”.
